Earlier results on one compound are cited in patent publication US20240173371A1, “RHODIOLA CRENULATA COMPOSITIONS AND METHODS OF MAKING THE SAME” (NutriScience Innovations LLC, priority 2022, published 2024).

Each structure is given as a SMILES string.

Data set [1] deals with CD3+T cells and CD4+T helper cells. Particulars: Wistar male rats, supplementation.
For data set [2] the following is noted: rats, oral, 20 and 40 mg/kg over two weeks.
For data set [3] the following is noted: rats, oral, 20 and 40 mg/kg over two weeks. This is another data set of the same source.

Regarding `OC[C@H]1O[C@@H](OCCc2ccc(O)cc2)[C@H](O)[C@@H](O)[C@@H]1O` [salidroside], in data set [1], the “CD4+T helper cells” value is “increased” and the “total CD3+T cells” value was “increased”. Further, in data set [2], the olfactory-bulbectomy-induced hyperactivity result is listed as “alleviated”. Moreover, in data set [3], the “outcome of a forced swim test” value is given as “improved”.
